Biological target: T1, CRTh2 receptor (Homo sapiens, UniProt Q9Y5Y4)
T1 construct: expressed in transfected cells; host or cells: CHO.K1 cells (membranes)
T1 sequence (Q9Y5Y4 1-395): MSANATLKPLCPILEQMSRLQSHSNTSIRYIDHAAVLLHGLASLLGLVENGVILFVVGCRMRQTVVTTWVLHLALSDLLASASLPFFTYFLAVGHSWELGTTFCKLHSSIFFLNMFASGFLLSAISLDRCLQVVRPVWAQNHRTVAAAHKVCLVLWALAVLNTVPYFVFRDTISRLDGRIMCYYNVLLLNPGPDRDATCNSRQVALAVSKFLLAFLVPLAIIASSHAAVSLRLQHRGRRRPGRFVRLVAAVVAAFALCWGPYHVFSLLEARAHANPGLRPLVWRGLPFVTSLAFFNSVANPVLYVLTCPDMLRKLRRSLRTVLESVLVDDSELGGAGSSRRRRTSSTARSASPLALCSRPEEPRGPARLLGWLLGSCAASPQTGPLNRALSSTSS
Assay: CRTh2 GTPγS antagonism binding assay
Format: biochemical
Details: membranes from CHO.K1 cells stably overexpressing the CRTh2 receptor; PGD2 at 50 nM (EC80); [35S]-GTPγS as radioligand; read-out: GTPγ Binding
Description: CRTh2 GTPγS antagonism binding assay
The assay is performed using membranes obtained from CHO.K1 cells stably overexpressing the CRTh2 receptor and [^35S]-GTPγS as radioligand. Assay is performed pre-incubating 4-8 µg of membranes per well with the compound to be tested for 1 h, followed by incubation with PGD2 at 50 nM (EC80), 0.1 nM [^35S]-GTPγS in incubation buffer (20 mM HEPES, 10 mM MgCl2, 100 mM NaCl, 10 µM GDP, 10 µg/ml Saponine and 0.2% BSA) for 2 h at room temperature. The reaction is terminated by filtering in GF/C plates pre-treated with 20 mM HEPES, 10 mM MgCl2, 100 mM NaCl and washing 6 times with wash buffer (20 mM NaH2PO4, 20 mM Na2HPO4). After washing, plates are dried and scintillation buffer Optiphase added. The radioactivity retained in the filter is counted using a Microbeta liquid scintillation counter.

Row | SMILES | IC50
1 | Cc1c(Cc2ccccc2S(=O)(=O)c2ccc(OC(F)(F)F)cc2)c2c(n1CC(=O)O)CCNC2=O [Example 16, [2-Methyl-4-oxo-3-(2-{[4-(trifluoromethoxy)phenyl]sulfonyl}benzyl)-4,5,6,7-tetrahydro-1H-pyrrolo[3,2-c]pyridin-1-yl]acetic acid] | 0.0069 µM
2 | COc1cccc(Cc2c3c(n(CC(=O)O)c2C)CCNC3=O)c1S(=O)(=O)c1ccccc1 [Example 21, {3-[3-Methoxy-2-(phenylsulfonyl)benzyl]-2-methyl-4-oxo-4,5,6,7-tetrahydro-1H-pyrrolo[3,2-c]pyridin-1-yl}acetic acid] | 0.02 µM
3 | COc1ccc(S(=O)(=O)c2ccccc2Cc2c3c(n(CC(=O)O)c2C)CCNC3=O)cc1 [Example 15, (3-{2-[(4-Methoxyphenyl)sulfonyl]benzyl}-2-methyl-4-oxo-4,5,6,7-tetrahydro-1H-pyrrolo[3,2-c]pyridin-1-yl)acetic acid] | 0.0039 µM

More lines, now with the values ahead:

Row | IC50 | SMILES
4 | 0.012 µM | COc1cccc(S(=O)(=O)c2ccccc2Cc2c3c(n(CC(=O)O)c2C)CCNC3=O)c1 [Example 34, (3-{2-[(3-Methoxyphenyl)sulfonyl]benzyl}-2-methyl-4-oxo-4,5,6,7-tetrahydro-1H-pyrrolo[3,2-c]pyridin-1-yl)acetic acid]
5 | 0.011 µM | COC(=O)c1ccc(Cc2c3c(n(CC(=O)O)c2C)CCNC3=O)c(S(=O)(=O)c2ccccc2)c1 [Example 28, {3-[4-(Methoxycarbonyl)-2-(phenylsulfonyl)benzyl]-2-methyl-4-oxo-4,5,6,7-tetrahydro-1H-pyrrolo[3,2-c]pyridin-1-yl}acetic acid]
6 | 0.027 µM | Cc1c(Cc2ccccc2S(=O)(=O)C2CCCCC2)c2c(n1CC(=O)O)CCNC2=O [Example 23, {3-[2-(Cyclohexylsulfonyl)benzyl]-2-methyl-4-oxo-4,5,6,7-tetrahydro-1H-pyrrolo[3,2-c]pyridin-1-yl}acetic acid]
